Laboratory results: paper PMC3996151, “Safety and pharmacological characterization of the molecular tweezer CLR01 – a broad-spectrum inhibitor of amyloid proteins’ toxicity” (BMC Pharmacology & Toxicology, 2014)
Marks after values point to notes of the source that are not given here.

Experiments:
transthyretin = system: transthyretin; set-up: method as in PMID 24459092; details: peripheral administration, 1.2 mg/kg/day; cited from earlier work
[1] = Blood-brain barrier permeability with 3H-CLR01 IV (scintillation counting of blood and brain); assay type: in vivo, mouse; details: 40-μg/kg/day dose, 15-m old 3×Tg mice, estimate
[2] = Solubility in aqueous solutions; assay type: physicochemical
[3] = set-up: method as in PMID 18605724, PMID 23750919; details: cited from earlier work
[4] = Plasma concentration by LC-MS after SC, IV or oral administration; assay type: in vivo, mouse
Method: For studies of plasma concentration, CLR01 was administered by either SC or intravenous (IV) injection at 1 mg/kg, or by oral gavage at 10 mg/kg, and plasma was collected at time points between 0.33 - 24 h. Three mice were used per time point. The concentration of CLR01 in plasma was determined by Wolfe Laboratories Inc. (Watertown, MA) using liquid chromatography-mass spectrometry (LC-MS) by interpolation of sample peak area data into the calibration curve.

[5] = set-up: method as in PMID 21916458, PMID 16218636; details: cited from earlier work
C57BL/6J mice = assay: Acute toxicity: single IP injection, behaviour, histopathology and serum chemistry after 24 h; assay type: in vivo, mouse; details: for Alanine aminotransferase / Albumin / Alkaline phosphatase / Aspartate aminotransferase / Blood urea nitrogen / Cholesterol / Creatinine / Glucose / Lactate dehydrogenase / Total bilirubin / Total protein: serum, acute, mean
Method: For acute-toxicity studies, 2-m old C57BL/6J mice were administered saline-vehicle, 10 mg/kg, or 100 mg/kg CLR01 by a single intraperitoneal (IP) injection. The mice were sacrificed 24-h after the injection. For chronic toxicity studies, 2-m old C57BL/6J mice were administered saline-vehicle, 3 mg/kg, or 10 mg/kg CLR01 by daily IP injection for 30 days. Acute-study mice were visually monitored for 1 h after injection and then every 50 min for 10 min over the first 6 h of the experiment for changes in activity and behavior. The mice also were monitored every 110 min for 10 min during the last 6 h of the experiment until they were sacrificed. Chronic-study mice were monitored for 1 h after injection and then 3 times a day for 10 min each, every day of the first week. During that week there were no appreciable changes in the behavior, appearance, or weight of the mice. Therefore, monitoring was reduced to twice a day during the remainder of the experiment. On all occasions, the mice were monitored for any signs of severe toxicity, including bruising or bleeding, pale mucous membranes or extremities, diarrhea, dehydration, neurological signs, such as difficulty ambulating or paralysis, tachypnea or dyspnea, or abdominal distension.
Following the treatment, mice were anesthetized with pentobarbital and blood was collected by cardiac puncture and placed in tubes containing a clot activator for serum separation (Capiject T-MG tubes, Terumo Medical Products, Somerset, NJ). Then, the lungs were filled through the trachea with 4% paraformaldehyde to prevent collapse, and tissues (brain, heart-lung, liver, kidney, and spleen) were collected and fixed for 72 h in 4% paraformaldehyde at a ratio of ~1:10 tissue:fixative (v/v). Tissues then were transferred into a 70%-ethanol solution and transferred to the UCLA Mouse Pathology Core for paraffin embedding, sectioning, and tissue histopathology analysis. Serum was analyzed by the UCLA Division of Laboratory Animal Medicine (DLAM) Animal Serology & Molecular Diagnostic Laboratory for an 11-panel serum chemical analysis using the ACE Alera Clinical Chemistry system (Alfa Wassermann Diagnostic Technologies, West Caldwell, NJ). The panel included: alanine aminotransferase, aspartate aminotransferase, albumin, alkaline phosphatase, creatinine, total bilirubin, lactate dehydrogenase, blood urea nitrogen, cholesterol, total protein, and glucose.
If CLR01 indeed operates by a process-specific mechanism and remodels the abnormal aggregation of amyloidogenic proteins at substantially lower concentrations than concentrations that would perturb normal physiological processes, one would expect the compound to have a high therapeutic index. To calculate the therapeutic index, a lethal dose must be reached. […] The next rational step was to test the safety margin of CLR01 in vivo. Based on the in vitro and cell culture data, we expected that 100 mg/kg would be lethal to mice and therefore used it as the highest dose in our safety-evaluation experiments. We assessed the safety of CLR01 in 2-m old, male, WT mice either 24 h following a single IP injection of 10 or 100 mg/kg (acute administration) or after daily IP injection of 3 or 10 mg/kg for 30 days (chronic administration). Following euthanasia, serum was collected for chemical analysis and tissues were harvested for histopathology evaluation.

[6] = molecular target: Poly [ADP-ribose] polymerase 1 (PARP-1); set-up: method as in T. Schrader, unpublished results; details: enzyme concentration of 2.3 nM; ref T. Schrader, unpublished results; cited from earlier work
primary neurons = system: primary neurons; set-up: method as in PMID 23183235; details: cited from earlier work
[7] = 2-m old WT mice, 24 h after single IP dose 10 mg/kg, N = 8
[8] = 2-m old WT mice, 24 h after single IP dose 100 mg/kg, N = 8
[9] = 2-m old WT mice, 24 h after single IP dose 100 mg/kg, N = 8, p < 0.001 vs control
[10] = 2-m old WT mice, 24 h after single IP dose 100 mg/kg, N = 8, p < 0.01 vs control

For `O=P(O)(O)Oc1c2c(c(OP(=O)(O)O)c3c1C1CC3c3cc4c(cc31)C1CC4c3ccccc31)C1CC2c2cc3c(cc21)C1CC3c2ccccc21` [CLR01], the “Effect on transthyretin pathology” value (transthyretin) is given as “significant decrease in transthyretin deposition”, the “Estimated amount of CLR01 entering the brain per day” value [1] is given as ~ 200 fmol and the “Solubility in aqueous solutions” value [2] is given as “soluble at millimolar concentrations”. The “Affinity for Arg relative to Lys, fold lower” value [3] was ~ 10 fold, the SC bioavailability ([4]; 1 mg/kg SC vs IV, 2-m old WT mice) was “identical, within experimental error, to the IV administration” and the “Administered dose detected in the blood at the earliest time point” value ([4]; 20 min, SC or IV 1 mg/kg) was ~ 30%. The “Initial CLR01 levels found in the plasma” value ([4]; 8 h following SC or IV administration) was “Approximately 5%”, the half-life ([4]; mouse, plasma, subcutaneous, SC or IV 1 mg/kg) was roughly 2.5 h and the Oral bioavailability ([4]; oral gavage 10 mg/kg) was “negligible”. The “Affinity for Lys residues” value [5] was “low micromolar affinity”, the “Single non-lethal dose relative to the efficacious dose” value (C57BL/6J mice; 100 mg/kg single dose) was 2,500 fold and the Alanine aminotransferase (C57BL/6J mice; [7]) was 36.1 U/L. For the same compound, the Albumin (C57BL/6J mice; [7]) was 2.3 g/dL, the Alkaline phosphatase (C57BL/6J mice; [7]) was 126.1 U/L and the Aspartate aminotransferase (C57BL/6J mice; [7]) was 89.5 U/L. For the same compound, the Blood urea nitrogen (C57BL/6J mice; [7]) was 19.8 mg/dL, the Cholesterol (C57BL/6J mice; [7]) was 91.5 mg/dL and the Creatinine (C57BL/6J mice; [7]) was 0.2 mg/dL. It also gave a Glucose (C57BL/6J mice; [7]) of 297.8 mg/dL, a Lactate dehydrogenase (C57BL/6J mice; [7]) of 325.2 U/L and a Total bilirubin (C57BL/6J mice; [7]) of 0.2 mg/dL. The Total protein (C57BL/6J mice; [7]) was 3.7 g/dL, the Albumin (C57BL/6J mice; [8]) was 1.9 g/dL and the Alkaline phosphatase (C57BL/6J mice; [8]) was 101.5 U/L. It also gave a Blood urea nitrogen (C57BL/6J mice; [8]) of 22.0 mg/dL, a Creatinine (C57BL/6J mice; [8]) of 0.4 mg/dL and a Total bilirubin (C57BL/6J mice; [8]) of 0.3 mg/dL. The Total protein (C57BL/6J mice; [8]) was 3.6 g/dL, the Alanine aminotransferase (C57BL/6J mice; [9]) was 1282.9*** U/L and the Glucose (C57BL/6J mice; [9]) was 104.3*** mg/dL. The Lactate dehydrogenase (C57BL/6J mice; [9]) was 2439.8*** U/L, the Aspartate aminotransferase (C57BL/6J mice; [10]) was 565.3** U/L and the Cholesterol (C57BL/6J mice; [10]) was 20.8** mg/dL. For the same compound, the “Behavior (levels and type of activity and grooming)” value (C57BL/6J mice; single IP 10 mg/kg) was “behaved indistinguishably from control mice”, the “Incidence of liver degeneration and necrosis” value (C57BL/6J mice; single IP 10 mg/kg, 24 h) was “one of eight” and the “Duration of decreased activity and droopy eyelids in some mice” value (C57BL/6J mice; single IP 100 mg/kg) was “up to 2 h”. For the same compound, the “Duration of signs of distress following the injection” value (C57BL/6J mice; single IP 100 mg/kg) was ~ 30 min, the Behavior after injection (C57BL/6J mice; single IP 100 mg/kg, 2-m old WT mice) was “obvious signs of distress” and the Survival (C57BL/6J mice; single IP 100 mg/kg, 24 h) was “all the mice in the high-dose group survived”. The Liver histopathology (C57BL/6J mice; single IP 100 mg/kg, 24 h, all mice, centrilobular and midlobular regions) was “liver degeneration and necrosis”, the “Histopathology of heart, lung, spleen and brain” value (C57BL/6J mice; single IP 10 or 100 mg/kg, 24 h) was “indistinguishable from those of control mice” and the Lethal dose (C57BL/6J mice; single IP injection, mice) was greater than 100 mg/kg. The IC50 [6] was 3.3 µM and the “Protection of primary neurons from Aβ-induced effects” value (primary neurons) was “protected primary neurons from Aβ-induced decrease in synaptic spine density, basal synaptic activity, and long-term potentiation”.
